“Also recorded” adds a separate entry of the source.
What was measured:
HaCaT cells [1] = experiment: ECIS cell migration assay (electric wounding) and micromotion; format: cell-based, human; details: for resistance following wounding (migration): measured at 400 Hz; for cell migration of transfected HaCaT cells: vs wild type HaCaT, electric wounding, ECIS
Text: • 1. Cells and Human keratinocytes and melanoma Cells (HaCaT-from The German Cancer Institute/Cell Service, Germany and A431—from ATCC), human vascular endothelial cell, HECV (from Interlab, Italy) were used. Recombinant human HGF was from the research laboratory. nWASP inhibitors, Wiskostatin and 187-1 were from Merck Pharmaceuticals and TOCRIS, respectively. Tissue collection and preparation of RNA/cDNA bank from human wound/skin tissues. Fresh tissues from abnormal/chronic wounds (n=14), acute wounds (n=10) and normal skin from healthy volunteers (n=10) were collected under an approval from the local ethical committee (Ethical approval ID: 05/WSE03/92) and stored in −80° C. until use. Written informed consent was obtained from each patient who agreed for a biopsy to be taken. Tissues were frozen sectioned on a cryostat (Leica). A portion of the sections were kept for histological analysis. Approximate 20 sections were pooled and homogenised using a hand-held homogenizer using a procedure to extract RNA from the tissues. RNA extracted from the tissues was quantified and cDNA was subsequently generated using a RT kit. Abnormal/chronic wound tissues were from patients with abnormal/chronic leg ulcers. Acute wound tissues were obtained from patients with acute surgical wounds after undergoing excision of pilonidal disease. Normal tissues were from normal volunteer's normal skin. • 2. Analysis of nWASP gene transcripts was carried out using conventional and quantitative real time PCR (Icycler IQ, Bio-Rad) on human wound and skin tissues and cells. For conventional PCR, primers used were: NWASPF8 (5′agtccctatcactttcctc′3) (SEQ ID NO 1) and NWASPR8 (5′[…]′3) (SEQ ID NO 2) and NWASPF9 (5′[…]′3) (SEQ ID NO 3) and NWASPR9 (5′[…]′3) (SEQ ID NO 4). For Q-PCR primers used were nWASPF1 and NWASPZR1 (5′[…]′3) (SEQ ID NO 5) and (5′[…]′3) (SEQ ID NO 6). • 3. The study adopted the Ampliflor quantitation technology, in which one set of gene specific primers and a Uniprimer probes were used, in combination with quantitative PCR master mix. The reaction was carried out using ICycler^IQ (Bio-Rad). An internal standard was employed for quantitation purpose. In all the assays, GAPDH and actin were amplified and used as the house keeping controls. Levels of a specific gene was normalised to the expression level of GAPDH in the respective sample for example, nWASP, GAPDH and actin transcripts (mRNA) were measure in the same sample. nWASP was then normalised to GAPDH. • 4. Evaluation of cells response to wound stress after n-WASP is targeted. Here, an in vitro cell model, based on the ECIS system, was adopted. Briefly, cells were allowed to sit in the electric arrays and an 8E10 format was used. Cells in fixed number and fixed volume of culture medium were added into each of the respective wells, which had either control medium or a specific inhibitor to N-WASP, namely Wiskostatin or 187-1. In selected wells, a cell migration inducer, HGF was also included in the absence or presence of the nWASP inhibitors. Cells were investigated for the following functions: the adhesiveness to the matrix surface and the migration capacity. The first was recorded immediately after plating of the cells into each well at 3 frequencies: 400 Hz, 4,000 Hz, and 40,000 Hz. The frequencies were chosen following a frequency scanning (FIG. 3). Two main cell functions were thus tested here: the adhesiveness of the cells to matrix and cell migration. • 5. Creation of cell models. We have created a new cell model, based on a human keratinocyte cell line, HaCaT, which expressed high levels of n-WASP. By using anti-nWASP transgenes, we successfully knocked out the expression of n-WASP from the cells and subsequently used the cells in our testing. Briefly, the secondary structure (FIG. 2) of human nWASP was generated using Zuker's RNA mFold software. Three suitable sites for targeting within the nWASP mRNA were identified. […]

HaCaT cells [2] = experiment: ECIS cell adhesion assay; format: cell-based, human
Text: (§1) • 1. Cells and Human keratinocytes and melanoma Cells (HaCaT-from The German Cancer Institute/Cell Service, Germany and A431—from ATCC), human vascular endothelial cell, HECV (from Interlab, Italy) were used. Recombinant human HGF was from the research laboratory. nWASP inhibitors, Wiskostatin and 187-1 were from Merck Pharmaceuticals and TOCRIS, respectively. Tissue collection and preparation of RNA/cDNA bank from human wound/skin tissues. Fresh tissues from abnormal/chronic wounds (n=14), acute wounds (n=10) and normal skin from healthy volunteers (n=10) were collected under an approval from the local ethical committee (Ethical approval ID: 05/WSE03/92) and stored in −80° C. until use. Written informed consent was obtained from each patient who agreed for a biopsy to be taken. Tissues were frozen sectioned on a cryostat (Leica). A portion of the sections were kept for histological analysis. Approximate 20 sections were pooled and homogenised using a hand-held homogenizer using a procedure to extract RNA from the tissues. RNA extracted from the tissues was quantified and cDNA was subsequently generated using a RT kit. Abnormal/chronic wound tissues were from patients with abnormal/chronic leg ulcers. Acute wound tissues were obtained from patients with acute surgical wounds after undergoing excision of pilonidal disease. Normal tissues were from normal volunteer's normal skin. • 2. Analysis of nWASP gene transcripts was carried out using conventional and quantitative real time PCR (Icycler IQ, Bio-Rad) on human wound and skin tissues and cells. […] The study adopted the Ampliflor quantitation technology, in which one set of gene specific primers and a Uniprimer probes were used, in combination with quantitative PCR master mix. […] An internal standard was employed for quantitation purpose. […] The first was recorded immediately after plating of the cells into each well at 3 frequencies: 400 Hz, 4,000 Hz, and 40,000 Hz. […]

[3] = system: HECV cells transfected and forced to express nWASP; experiment: endothelial tubule forming assay, HECV forced to express nWASP; format: cell-based, human; details: nWASP expressing HECV cells, after 48 hours
HaCaT cells [4] = experiment: growth of HaCaT cells; format: cell-based, human
[5] = tolerance in db/db strain; format: in vivo, db/db mice; details: administered systemically (IP), efficacy study
Method: (§2) First, the main tolerance tests were conducted using the CD-1 athymic mice (Charles River Laboratories), owing to their slow and steady rate of growth and easier to observe changes in the skin (hairless) and other possible side effects. Briefly, CD-1 of 4-6 weeks old, 20 g in weight, were housed in filter topped cages. […] Both compounds were given at […] final concentration in 100 ul in volume. […] CD-1 were observed daily, weighed twice weekly. An additional tolerance and efficacy test was carried out using the db/db strain.
(§3) The diabetic strain of db/db was obtained from Harlan. 4-6 weeks old with body weight at 20 g were used. […] Briefly, after being housed for a week, the db/db mice were first ear-pieced using an ear puncher, in order to create a wound (hole) of 1 mm in diameter. The following day after wound creation, all the db/db were weighed, wound photographed using a digital camera. Treatment was given systemically (by IP injection) or topically (by manually applying the compounds in gel into the wound area). Both treatments were given every other day. Images were obtained weekly. The size of the wounds was determined using an image analysis software. Data are given in two ways:
Wiskostatin was first dissolved in DMSO at concentration of 5 mg/ml. The DMSO solution was then gradually diluted in BSS in order to avoid precipitation. […]

[6] = in vivo tolerance test in CD-1 athymic mice; details: intraperitoneal, daily, 1 and 10 uM, two weeks
Method: as §2

HECV cells = experiment: endothelial tubule forming assay, HECV wild type (negative for nWASP); format: cell-based, human; details: HECV cells negative for nWASP expression
wound in db/db mice = experiment: in vivo efficacy test, wound healing (ear punch wound); details: for size of wounds vs control: after three weeks
Text: as §3
1. the area of the wounds in pixels. Two sample student t test was used for statistical analysis. 2. change of the size of wound over the starting point calculated using: (area at a given point—area at the starting point)/(area of the starting point)×100. Bonferroni model was used for data analysis.
Wiskostatin was first dissolved in DMSO at concentration of 5 mg/ml. The DMSO solution was then gradually diluted in BSS in order to avoid precipitation. The solutions were prepared such that each 100 ul contained the correct amount of compounds and was aliquatted and stored at −20° C. until used. The compounds were injected every other day by the IP route. […] Treatment was given every other working day (Monday, Wednesday and Friday) and the images obtained on Wednesday.
For topical application, we used two conventional carrier gels (purchased from Pharmacy of University Hospital of Wales) that are currently used in wound care. […] For use, a small amount (150 ul) of the gel was applied to the wound area and gently rubbed in using fingers. Treatment was given every other working day (Monday, Wednesday and Friday) and the images obtained on Wednesday.

nWASP mRNA = experiment: knock down of nWASP mRNA in HaCaT cells by anti-nWASP transgenes (RT-PCR); format: cell-based, human; details: HaCaT cells after transfection (electroporation)
Text: as §1, with “Written informed consent was obtained from each patient who agreed for a biopsy to be taken. Tissues were frozen sectioned on a cryostat (Leica). A portion of the sections were kept for histological analysis. Approximate 20 sections were pooled and homogenised using a hand-held homogenizer using a procedure to extract RNA from the tissues.” left out, “Abnormal/chronic wound tissues were from patients with abnormal/chronic leg ulcers. Acute wound tissues were obtained from patients with acute surgical wounds after undergoing excision of pilonidal disease. Normal tissues were from normal volunteer's normal skin. • 2.” left out

HGF: recombinant human HGF, cell migration inducer / positive control
migration of control HaCaT cells (HaCaT cells [1]; HGF 40 ng/ml): increased the migration of control HaCaT cells
migration of nWASP transgene carrying HaCaT cells (HaCaT cells [1]; HGF 40 ng/ml): some limited effect
adhesiveness of HaCaT cells (HaCaT cells [2]; HGF 40 ng/ml alone vs control cells): increased the adhesiveness

Wiskostatin
tubule forming [3]: strong stimulatory effect on tubule forming

CN(C)C[C@H](O)Cn1c2ccc(Br)cc2c2cc(Br)ccc21 (racemic) [Wiskostatin]
growth of HaCaT cells (HaCaT cells [4]): limited inhibitory effect on the growth and only at a high concentration
effective concentrations relative to those causing toxicity and growth changes (HaCaT cells [4]; all effects on cell functions): far below those that may cause toxicity and growth changes
side effects [5]: without Producing any Side Effects
resistance following wounding (migration) (HaCaT cells [1]; 1 nM): rapid rise of resistance
resistance following wounding (migration) (HaCaT cells [1]; 10 nM): rapid rise of resistance
migration of HaCaT cells (HaCaT cells [1]; electric wounding assay): Increased the Migration
tolerability [6]: Well Tolerated
tubule formation (HECV cells): neither 187-1 nor Wiskostatin had a major impact
adhesiveness of HaCaT cells to matrix surface (HaCaT cells [2]; Wiskostatin 1, 10, 100 nM, 400, 4,000, 40,000 Hz, particularly at 40,000 Hz): increased the adhesiveness
HGF-induced adhesiveness of HaCaT cells (HaCaT cells [2]; with HGF 40 ng/ml, Wiskostatin 1, 10, 100 nM): further increased the adhesiveness
size of wounds vs control (wound in db/db mice; Wiskostatin systemic 1 μM, p=0.017): significantly reduced the size of the wounds; also recorded: significant reduction of the size of wound
size of wounds vs control (wound in db/db mice; Wiskostatin systemic 10 μM, p=0.04): significantly reduced the size of the wounds; also recorded: significant reduction of the size of wound
size of wounds vs control (wound in db/db mice; Wiskostatin topical-A gel, p=0.044): significant effect
size of wounds vs control (wound in db/db mice; Wiskostatin topical-B gel, p=0.044): significant effect
wound healing (wound in db/db mice; administered systemically (IP), every other day): Significantly Accelerated Wound Healing
wound healing (wound in db/db mice; administered topically in gel): Significant Effect

B1: transgene-3: anti-nWASP antisense-hammerhead ribozyme/RNA transgene, SEQ ID NO 19, cloned into pEF6/V5/His TOPO (nucleic acid, listed as Homo sapiens)
DNA: CTGCAGGTGCAGCTGTGGGAGCTCTTCTGATGAGTCCGTGAGGACGAAAAGGTGGTGGGGGAGGAGCGCCTCTTCCCCTAGCCTAGT
cell migration of transfected HaCaT cells (HaCaT cells [1]): dramatic increase in cell migration

B2: transgene-1: anti-nWASP antisense-hammerhead ribozyme/RNA transgene, SEQ ID NO 17, cloned into pEF6/V5/His TOPO (nucleic acid, listed as Homo sapiens)
DNA: CTGCAGGAGTTCTTTGACCACATACAGTTCCCTGATGAGTCCGTGAGGACGAAATCTGCTGCATATAACTGCACCACACTAGT
knocking down nWASP mRNA/transcript (nWASP mRNA): active in knocking down

B3: transgene-2: anti-nWASP antisense-hammerhead ribozyme/RNA transgene, SEQ ID NO 18, cloned into pEF6/V5/His TOPO (nucleic acid, listed as Homo sapiens)
DNA: CTGCAGACAAGCAACACCACTGCACTTCTTTCTGATGAGTCCGTGAGGACGAAACCACATACAGTTCCGATCTGCTGCATATAACTAGT
cell migration of transfected HaCaT cells (HaCaT cells [1]): dramatic increase in cell migration
knocking down nWASP mRNA/transcript (nWASP mRNA): active in knocking down; also recorded: highly active

Reference: patent US20160038563A1, “MOLECULAR TARGETS FOR HEALING OR TREATING WOUNDS” (University College Cardiff Consultants Limited, priority 2010, published 2016)
